Experimental data reported in PubChem BioAssay (NCI).
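Protocol summary: plate cells (96-well), add compound at 5 concentrations, incubate 48 h, interpolate endpoints linearly. The concentration for 50% growth inhibition is given as GI50. TGI: concentration producing complete growth inhibition.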

Legend:
Test in all cases: NCI tumour cell line growth inhibition, 48 h
[1] = test system: KM12 colon
[2] = test system: SNB-19 CNS
[3] = test system: CAKI-1 renal
[4] = test system: NCI-H522 lung
[5] = test system: SW-620 colon
[6] = test system: SN12C renal
[7] = test system: SK-MEL-28 melanoma
[8] = test system: HL-60(TB) leukemia
[9] = test system: K-562 leukemia
[10] = test system: ACHN renal

Row | Structure (SMILES) | TGI [1] [µM] | TGI [2] [µM] | TGI [3] [µM] | TGI [4] [µM] | TGI [5] [µM] | TGI [6] [µM] | TGI [7] [µM] | TGI [8] [µM] | TGI [9] [µM] | TGI [10] [µM] | GI50 [1] [µM] | GI50 [2] [µM] | GI50 [3] [µM] | GI50 [5] [µM] | GI50 [6] [µM] | GI50 [7] [µM] | GI50 [9] [µM] | GI50 [10] [µM] | GI50 [4] [µM] | GI50 [8] [µM]
1 | C[C@H]1C(=O)O[C@@H]2CCN3CC=C(COC(=O)[C@](C)(O)[C@@]1(C)O)[C@H]23 | > 100 | > 100 | > 100 | > 100 | > 100 | > 100 | > 100 | > 100 | > 100 | > 100 |  |  |  |  |  |  |  |  |  | 
2 | CC(=O)NNc1nc(-c2ccc([N+](=O)[O-])cc2)c(C#N)c(=O)n1C | > 100 | > 100 | > 100 | 45.6 | > 100 | > 100 | > 100 | 82.6 | 89.5 | > 100 |  |  |  |  |  |  |  |  |  | 
3 | CN(C)C(=O)/C=C/c1c[nH]c(=O)[nH]c1=O | > 500 | > 500 | > 500 | > 500 | > 500 | > 500 | > 500 | > 316 | > 500 |  |  |  |  |  |  |  |  |  |  | 
4 | COc1ccc(C2=C3SC=c4ccccc4=C3ON=C2c2ccccc2)cc1 | > 100 | > 100 | > 100 | > 100 | > 100 | > 100 | > 100 | > 100 | > 100 | > 100 |  |  |  |  |  |  |  |  |  | 
5 | Cc1cccc2c1Sc1ccccc1C2NC(=O)CCN(C)C (stereo not drawn) |  | > 100 |  |  | > 100 | > 100 | > 100 | > 100 | > 100 | > 100 |  |  |  |  |  |  |  |  |  | 
6 | O=C(Nc1ccc([N+](=O)[O-])cc1[N+](=O)[O-])C(=O)C(C(=O)c1ccc2ccccc2c1)C1OC(=O)c2ccccc21 (stereo not drawn) | 40.3 | 33 | 54 | 22.8 | 30.9 | 54.7 | 48 | 35 | 38.8 | 73.2 |  |  |  |  |  |  |  |  |  | 
7 | CN(C)CCNC(=O)c1cccc2ccc(-c3ccc(F)cc3)nc12 | 33.4 | 33.7 | 15.3 | 16.9 | 21 | 25.2 | 20.1 | 7.49 | 12 |  |  |  |  |  |  |  |  |  |  | 
8 | COc1cc(C2CC(c3cccc(Nc4ccncc4)c3)=NN2c2ccc(Cl)cc2)cc(OC)c1OC (stereo not drawn) | 3.31 | 2.91 | 2.76 |  | 3.19 | 2.95 | 3.12 |  | 4.71 | 2.88 | 1.67 | 1.55 | 1.41 | 1.68 | 1.54 | 1.68 | 1.81 | 1.54 |  | 
9 | N=C1C(=N)c2ccccc2-c2ccccc21.N=C1C(=N)c2ccccc2-c2ccccc21.N=C1C(=N)c2ccccc2-c2ccccc21.[Cl-].[Ru+2] | > 68 | 6.35 |  | 2.84 | 3.74 | 2.94 | 3.79 | 3.76 | 4.68 | 3.29 |  |  |  |  |  |  |  |  |  | 
10 | O=P1(c2ccccc2)Nc2ccccc2SSc2ccccc2N1 | 30.4 | 30.3 | 32.4 | 29 | 33.7 | 32.8 | 34.3 | 39.6 | 51.4 |  |  |  |  |  |  |  |  |  |  | 
11 | COc1ccc2c(c1)CCCN2CCCCCCCCCCN(CCC(C)C)CCC(C)C | 17.4 | 27.7 | 28.9 | 5.68 | 26.2 |  | 27.2 | 9.61 | 40 | 22.8 |  |  |  |  |  |  |  |  |  | 
12 | COc1ccc(/C(Cl)=C(\C=O)c2ccc(OC)cc2)cc1 |  | > 100 | > 100 | > 100 | > 100 | > 100 |  | 80.9 | > 100 | > 100 |  |  |  |  |  |  |  |  |  | 
13 | CCCOC(=O)CNC(=O)OC(C)(C)C | > 100 | > 100 | > 100 | > 100 | > 100 |  | > 100 | > 100 | > 100 | > 100 |  |  |  |  |  |  |  |  |  | 
14 | NCCc1cc(O)c(O)cc1O | 58.5 | > 100 | 61.5 | 3.44 | 40 | 39.4 | 97.5 | 65.6 | > 80.5 | 60.1 |  |  |  |  |  |  |  |  | 1.53 | 12.8
15 | CCOC(=O)c1c2c(n(Cc3ccccc3)c1C)C(=O)C(=O)c1ccccc1-2 | 3.02 |  | 0.984 |  | 1.15 | 0.333 | 0.601 | 0.0983 | > 100 | 1.92 |  |  |  |  |  |  |  |  |  | 
16 | Nc1n[nH]c(=O)c2c1c(I)cn2C1OC(CO)C(O)C1O (stereo not drawn) | > 100 | > 100 |  |  | > 100 | 66.1 | 3.47 | 0.348 | > 100 | > 100 |  |  |  |  |  |  |  |  |  | 
